{"source": "patent EP3165218A1", "about": "“WATER DISPERSIBLE GRANULATES CONTAINING OXIDIZED OR REDUCED FORMS OF COENZYME Q10” (INDENA S.p.A., priority 2015, dated 2017)", "assay": "Water dispersability, visual evaluation", "type": "physicochemical", "settings": "quantity corresponding to 50 mg of Coenzyme Q10 in about 40 ml of tap water at room temperature; evaluated visually", "description": "The water dispersability of the granulate of the invention was evaluated visually in comparison with unformulated Coenzyme Q10 administered as crystal powder. A quantity of the granulate of the invention corresponding to 50 mg of Coenzyme Q10 was dispersed in about 40 ml of tap water at room temperature. The product formed a very fine and homogeneous cloudy dispersion under mild agitation and no precipitation occurred.", "data": [{"smiles": "COC1=C(OC)C(=O)C(C/C=C(\\C)CC/C=C(\\C)CC/C=C(\\C)CC/C=C(\\C)CC/C=C(\\C)CC/C=C(\\C)CC/C=C(\\C)CC/C=C(\\C)CC/C=C(\\C)CCC=C(C)C)=C(C)C1=O", "note": "[crystalline Coenzyme Q10, Coenzyme Q10]", "values": [{"measurement": "water dispersability", "result": "the powder remained on the surface of water"}]}]}
